Source: patent US7241803B2, “Compounds for inhibition of HIV infection by blocking HIV entry” (New York Blood Center, priority 2002, dated 2007)

How the values were obtained:
[1] = system: H9/HIV-1IIIB cells cocultured with MT-2 cells; test: syncytium-formation assay for screening HIV-1 fusion inhibitors; format: cell-based; details: single dose 25 μg/ml
Source text: Syncytium-formation assay for screening HIV-1 fusion inhibitors. […] HIV-1 induced syncytium formation was observed under an inverted microscope and scored as “−” (no syncytium was observed), “±” (about 50% syncytia were inhibited), and “+” (no syncytium formation was inhibited). The compounds scored with “−” and “±” were selected for further screening by ELISA for inhibitors against the gp41 six-helix bundle formation.

[2] = system: 5.25M7 & PBMCs infected by 92UG657 (clade B, R5)
Protocol: (§1) Inhibition of fusion between PBMCs infected by primary HIV-1 strains (X4 and R5 viruses) with CEMx174 5.25 M7 cells, which express CD4 and both coreceptors, CXCR4 and CCR5, was determined by a luciferase assay. Briefly, 50 μl of compound at graded concentration in triplicate was incubated with equal volume of PHA-stimulated PBMCs (1×10^5/ml) infected by corresponding primary HIV-1 strains, respectively, for 7 days as described above. After incubation at 37° C. for 30 min, 100 μl of CEMx174 5.25 M7 cells (2×10^5) were added and incubated at 37° C. for three days. The cells were collected, washed, and lysed with the lysing reagent included in the luciferase kit (Promega, Corp., Madison, Wis.). Aliquots of cell lysates were transferred to 96-well flat-bottom luminometer plates (Costar, Corning Inc., Corning, N.Y.), followed by addition of luciferase substrate (Promega). The luciferase activity was measured in the Ultra 384 luminometer (Tecan).

[3] = system: 5.25M7 & PBMCs infected by 93UG065 (clade D, X4R5)
Protocol: as §1

[4] = system: 5.25M7 & PBMCs infected by BCF02 (Group O, R5)
Protocol: as §1

[5] = system: 5.25M7 & PBMCs infected by CMU02 (clade E, R5)
Protocol: as §1

[6] = system: 5.25M7 & PBMCs infected by 92UG029 (clade A, X4)
Protocol: as §1

[7] = system: 5.25M7 & PBMCs/SF162 (clade B, R5)
Protocol: as §1

[8] = system: 5.25M7 & PBMCs infected by 93BR020 (clade F, X4R5)
Protocol: as §1

[9] = target: gp41 six-helix bundle formed by N36 and C34 (Human immunodeficiency virus type 1 group M subtype B, UniProt P04578); details: for inhibitory activity on gp41 six-helix bundle formation (sandwich ELISA): graded concentrations, up to 80 μg/ml, compound preincubated with N36; for inhibition of six-helix bundle formation between N36 and C34 (screening ELISA): single dose 25 μg/ml
Chain of gp41 six-helix bundle formed by N36 and C34 (P04578 546-581): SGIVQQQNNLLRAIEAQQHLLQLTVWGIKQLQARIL
Protocol: ELISA for screening for compounds that inhibit the gp41 six-helix bundle formation. A sandwich ELISA as previously described (23) was used to screen for compounds that inhibit the gp41 six-helix bundle formation. Briefly, peptide N36 (2 μM) was pre-incubated with a test compound at the indicated concentrations at 37° C. for 30 min, followed by addition of C34 (2 μM). In the control experiments, N36 was pre-incubated with C34 at 37° C. for 30 min, followed by addition of the test compound. After incubation at 37° C. for 30 min, the mixture was added to wells of a 96-well polystyrene plate (Costar, Corning Inc., Corning, N.Y.) which were precoated with IgG (2 μg/ml) purified from rabbit antisera directed against the N36/C34 mixture. […] Absorbance at 450 nm was measured using an ELISA reader (Ultra 384, Tecan, Research Triangle Park, N.C.). The percent inhibition by the compounds was calculated as previously described (18) and the concentration for 50% inhibition (IC50) was calculated using the software designated Calcusyn (7), kindly provided by Dr. T. C. Chou (Sloan-Kettering Cancer Center, New York, N.Y.).

SMILES | inhibition of HIV-1 mediated syncytium formation [1] | IC50 (μg/ml) for inhibition of cell-cell fusion [2] | IC50 (μg/ml) for inhibition of cell-cell fusion [3] | IC50 (μg/ml) for inhibition of cell-cell fusion [4] | IC50 (μg/ml) for inhibition of cell-cell fusion [5] | IC50 (μg/ml) for inhibition of cell-cell fusion [6] | IC50 (μg/ml) for inhibition of cell-cell fusion [7] | IC50 (μg/ml) for inhibition of cell-cell fusion [8] | inhibitory activity on gp41 six-helix bundle formation (sandwich ELISA) [9] | inhibition of six-helix bundle formation between N36 and C34 (screening ELISA) [9]
O=C(O)c1cc(-n2cccc2)ccc1Cl [NB-64] | significantly inhibited | 39.00 ± 5.27 µg/mL | 20.77 ± 1.94 µg/mL | 10.30 ± 5.90 µg/mL | 4.89 ± 1.08 µg/mL | 2.21 ± 0.56 µg/mL | 20.86 ± 0.20 µg/mL | 2.24 ± 0.31 µg/mL | significantly inhibited | significantly inhibited
Cc1ccc(C)n1-c1ccc(C(=O)O)c(O)c1 [NB-2] | significantly inhibited | 6.64 ± 1.13 µg/mL | 6.07 ± 0.07 µg/mL | 0.93 ± 0.57 µg/mL | 8.14 ± 1.09 µg/mL | 2.50 ± 0.02 µg/mL | 4.86 ± 0.34 µg/mL | 1.66 ± 0.07 µg/mL | significantly inhibited | significantly inhibited
